Source: patent publication US9862684B2, “Modulation of K2P channels” (The Regents of the University of California, priority 2013, dated 2018)

Molecular target: T1, K2P10.1 (TREK-2) (Mus musculus, UniProt Q8BUW1)
T1 construct: expressed in transfected cells; host or cells: Xenopus oocytes
T1 sequence (Q8BUW1 1-535): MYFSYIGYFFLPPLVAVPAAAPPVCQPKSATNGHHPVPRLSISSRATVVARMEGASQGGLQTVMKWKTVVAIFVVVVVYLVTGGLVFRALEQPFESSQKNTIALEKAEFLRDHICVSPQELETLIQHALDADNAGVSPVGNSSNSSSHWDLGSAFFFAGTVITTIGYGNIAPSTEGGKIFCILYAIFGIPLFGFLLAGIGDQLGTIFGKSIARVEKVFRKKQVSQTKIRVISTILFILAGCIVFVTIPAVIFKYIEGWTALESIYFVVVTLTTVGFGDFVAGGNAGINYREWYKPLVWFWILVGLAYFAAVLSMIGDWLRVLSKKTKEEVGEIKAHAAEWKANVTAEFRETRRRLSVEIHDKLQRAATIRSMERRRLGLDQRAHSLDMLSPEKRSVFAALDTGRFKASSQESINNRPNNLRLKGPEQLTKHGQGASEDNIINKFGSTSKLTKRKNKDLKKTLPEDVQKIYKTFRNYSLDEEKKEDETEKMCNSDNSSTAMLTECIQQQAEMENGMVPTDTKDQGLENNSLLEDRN
Assay: Two-electrode voltage clamp, Xenopus oocytes expressing K2P10.1 (TREK-2)
Assay type: cell-based, Murine
Procedure: FIG. 7 ML67-33 is a selective activator of heat- and mechanosensitive K2P channels. a-f, Exemplar I-V curves showing the effect of ML67-33 on a, K2P10.1 (TREK-2), b, K2P4.1 (TRAAK), c, K2P3.1 (TASK-1), d, K2P9.1 (TASK-3), e, K2P5.1 (TASK-2), and f, K2P18.1 (TRESK) measured in Xenopus oocytes in 2 mM [K^+]o pH 7.4. Currents were elicited by a voltage ramp from −150 to 50 mV, from a holding potential of −80 mV. g, Quantification of the effect of ML67-33 on the indicated channels. Data (mean±s.e., n≧6, N≧2) was normalized to basal channel activity and fitted to the Hill equation. […] Error bars indicate s.e., n≧6, N≧2.
Murine K2P channels were cloned into pGEMHE/pMO {Bagriantsev, 2011}, IRES-GFP (Invitrogen), or pYES2-MET25 (high copy 2μ, URA3) {Minor, 1999} for expression in oocytes, HEK-293T cells, and yeast, respectively, using standard molecular biology procedures, and verified by DNA sequencing.
Two-electrode voltage clamp recordings were performed from defolliculated stage V-VI Xenopus oocytes 24-48 hours after injection with 0.015-6.0 ng cRNA, using microelectrodes (0.3-3.0 MΩ) filled with 3M KCl. Data was acquired using the GeneClamp 500B (MDS Analytical Technologies) amplifier controlled by the pClamp software (Molecular Devices), and digitized at 1 kHz using Digidata 1332A (MDS Analytical Technologies). Recording solutions (mM): 2K (96 NaCl, 2 KCl, 1.8 CaCl2, 2 MgCl2), 90K (90 KCl, 8 NaCl, 1.8 CaCl2, 2 MgCl2), were buffered 5 mM HEPES pH 7.4. For K2P recordings, currents we elicited by a 1 second long ramp from −150 to +50 mV from a holding potential of −80 mV (2K), or −100 to +50 mV from a holding potential of 0 mV (90K). For KCNQ2 recordings, currents were elicited by a step protocol from −120 to 60 mV, in 20 mV increments, from a holding potential of −80 mV. Patch-clamp recordings from HEK-293T cells were performed using microelectrodes (2-3 MΩ) filled with 1M KCl. Data was acquired using the Axopatch 200B amplifier controlled by pClamp software, and digitized at 1 kHz using Digidata 1332A. Recording solutions (mM): intracellular (145 KCl, 5 EGTA, 3 MgCl2,) extracellular (150 NaCl, 5 KCl, 3 MgCl2, 1 CaCl2) were buffered with 5 mM HEPES pH 7.2 and 7.4, respectively. Currents were elicited by a 1 second long ramp from −150 to +50 mV from a holding potential of −80 mV. Data were fitted with a modified Hill's equation: I=Imin+(Imax−Imin)/(1+10^((Log EC50−Log [C])*H)), where Imax and Imin are maximal and minimal current values, respectively, EC50 is a half-maximal effective concentration of the compound, and H is the Hill coefficient.
There are six K2P subgroups {Noel, 2011} (FIG. 11). […]

SMILES: CC1(C)c2cc(Cl)ccc2N(CCc2nnn[nH]2)c2ccc(Cl)cc21 [ML67-33, 2,7-dichloro-9,9-dimethyl-10-[2-(1H-tetrazol-5-yl)ethyl]acridine]
- Emax (fold) (FIG. 7 legend: at 100 μM): 11.4±1.8 fold
- EC50 (Xenopus oocytes, 2 mM [K+]o pH 7.4): 30.2 ± 1.4 µM
